Measured values taken from patent US20110097745A1, “Method For Detecting Microbes” (priority 2007, published 2011).
≈ marks a conversion by molar mass, not a printed value.

Assays:
E. coli (W4100) = experiment: Gram differentiation with CTAB, tester bacteria luminescence; format: cell-based; conditions: +CTAB (3 ppm), 2 hrs 37 C, read after 60 min
Protocol: (§1) Gram-positive bacteria are more sensitive than Gram-negative bacteria to low concentrations of the cationic detergent CTAB. Overnight grown cultures of different strains of infecting bacteria were washed and suspended in saline. About 10^5 cells/well were aliquoted in 0.1 mL Medium 1 (Davis, 0.1% glucose, 25 ppm YE) in microtiter plates with or without 3 ppm of CTAB. After 2 hrs at 37 degrees Centigrade/Celsius?, 0.15 mL of Medium 2 (+10 ng/mL autoinducer) were added to each well, together with 10^6 cells/mL lux-cells. Luminescence was recorded after 60 min.

P. aeroginosa [1] = experiment: as above; format: cell-based; conditions: +CTAB (3 ppm), 2 hrs 37 C, read after 60 min
Protocol: as §1

S. aureus [2] = experiment: as above; format: cell-based; conditions: +CTAB (3 ppm), 2 hrs 37 C, read after 60 min
Protocol: as §1

S. typhi (772) = experiment: as above; format: cell-based; conditions: +CTAB (3 ppm), 2 hrs 37 C, read after 60 min
Protocol: as §1

Streptococcus sp. = experiment: as above; format: cell-based; conditions: +CTAB (3 ppm), 2 hrs 37 C, read after 60 min
Protocol: as §1

E. coli (W4110) = experiment: overnight disk diffusion test; format: cell-based; conditions: disk 30 ppm, 16 hrs 37 C
Protocol: (§2) Infecting bacteria (10^6 cells/ml from overnight grown cultures) were spread on LA plates on which 15 mm disks, saturated with various antibiotics, had been placed. After incubating the plates at 37 degrees Celsius for 16 hrs the zone of inhibition was determined for each strain. (Abbreviations used in FIG. 1a and Table 1a: CAP—Chloramphenicol; KAN—Kanamycin; AMP—Ampicillin; CEP—Cephamezin GEN—Gentamycin).

P. aeroginosa [3] = experiment: overnight disk diffusion test; format: cell-based; conditions: disk 30 ppm, 16 hrs 37 C
Protocol: as §2

S. typhimirium (772) = experiment: overnight disk diffusion test; format: cell-based; conditions: disk 30 ppm, 16 hrs 37 C
Protocol: as §2

S. typhi = experiment: microbe, parasite or virus in culture; format: cell-based
[4] = system: infecting bacteria of urine samples; experiment: antibiotics disc inhibition zone, urine samples (standard analysis); format: cell-based
Protocol: A standard analysis (urine culture colony count) was performed to evaluate bacterial load (Table 5a) and antibiotic susceptibility (Table 5b).

[5] = system: infecting bacteria of urine samples; experiment: BLT antibiotic susceptibility of urine samples; format: cell-based; design: BLT (luminescence): unit not given here; conditions: for BLT (luminescence): 3 hrs 37 C, concentrations given in Table 5; for antibiotic susceptibility of urine samples: key: R = resistant; S = susceptible
Protocol: Six fresh urine samples were obtained from a local clinic and examined for bacteriuria (>10^5 cells/mL urine) and the antibiotic susceptibility of the infecting bacteriuria. A tube containing a an antibiotic mixture that would eliminate all infecting bacteria but not effect the lux cells (Ampicillin, Kanamycin, Tetracyclin, and Chloramphenicol) served as a control.
Each urine sample was diluted in Medium 1 to yield a final concentration of 3%. 0.1 mL of the diluted samples were then incubated for 3 hrs. at 37 degrees Celsius in a microtitre plate, with or without an antimicrobial substance at the concentrations given in Table 5).
An equal volume of Medium 2 containing 10 ng/ml autoinducer and supplemented with 10^6 of the lux cells was then added to each well. The microtiter plate was then incubated at 28 degrees/Celsius and the luminescence was measured using a plate reader luminometer.
Luminescence was measured in the absence of antibiotics, in the presence of a mixture of antibiotics and in the presence of a single antibiotic from the mixture.
When the ratio of the luminescence measured in the presence of the single antibiotic to that measured in the presence of the antibiotic mix exceeds a second predetermined constant (e.g. 3) then the infecting bacteria are […] to the antibiotic.

S. aureus [6] = experiment: BLT (bioluminescence test) MIC determination

CCCCCCCCCCCCCCCC[N+](C)(C)C.[Br-] [CTAB, Cetyltrimethylammonium bromide]
luminescence of tester bacteria (E. coli (W4100)): 52 LU
luminescence of tester bacteria (P. aeroginosa [1]): 111 LU
luminescence of tester bacteria (S. aureus [2]): 80,405 LU
luminescence of tester bacteria (S. typhi (772)): 64 LU
luminescence of tester bacteria (Streptococcus sp.): 10,154 LU

O=C(N[C@H](CO)[C@H](O)c1ccc([N+](=O)[O-])cc1)C(Cl)Cl [Chloramphenicol]
zone of inhibition (E. coli (W4110)): 25 mm
zone of inhibition (P. aeroginosa [3]): 15 mm
zone of inhibition (S. typhimirium (772)): 30 mm
LU, fold increase over control (no antibiotics added) (S. typhi; 0.19 ppm): 0.7
LU, fold increase over control (no antibiotics added) (S. typhi; 0.39 ppm): 0.72
LU, fold increase over control (no antibiotics added) (S. typhi; 0.78 ppm): 0.63
LU, fold increase over control (no antibiotics added) (S. typhi; 1.5 ppm): 0.74
LU, fold increase over control (no antibiotics added) (S. typhi; 3.1 ppm): 1.9
LU, fold increase over control (no antibiotics added) (S. typhi; 6.25 ppm): 3.61
LU, fold increase over control (no antibiotics added) (S. typhi; 12.5 ppm): 5.42
LU, fold increase over control (no antibiotics added) (S. typhi; 25 ppm): 6.84
LU, fold increase over control (no antibiotics added) (S. typhi; 50 ppm): 5.84
MIC (S. typhi; Salmonella enterica, TYPHI, lowest concentration giving two-fold increase of tester luminescence above control): ~3 µg/mL (≈ 9.28 µM)
Antibiotics disc inhibition zone ([4]; urine sample 1, 30 ppm): 5 mm
Antibiotics disc inhibition zone ([4]; urine sample 2, 30 ppm): 4 mm
Antibiotics disc inhibition zone ([4]; urine sample 3, 30 ppm): 7 mm
Antibiotics disc inhibition zone ([4]; urine sample 4, 30 ppm): 5 mm
Antibiotics disc inhibition zone ([4]; urine sample 6, 30 ppm): 6 mm
antibiotic susceptibility of urine samples ([5]; urine sample 1): S
BLT (luminescence) ([5]; urine sample 1, 3% urine): 62
antibiotic susceptibility of urine samples ([5]; urine sample 2): S
BLT (luminescence) ([5]; urine sample 2, 3% urine): 46
antibiotic susceptibility of urine samples ([5]; urine sample 3): S
BLT (luminescence) ([5]; urine sample 3, 3% urine): 36
antibiotic susceptibility of urine samples ([5]; urine sample 4): S
BLT (luminescence) ([5]; urine sample 4, 3% urine): 31.2
antibiotic susceptibility of urine samples ([5]; urine sample 5): S
BLT (luminescence) ([5]; urine sample 5, 3% urine): 13
antibiotic susceptibility of urine samples ([5]; urine sample 6): S
BLT (luminescence) ([5]; urine sample 6, 3% urine): 41
LU, fold increase over control (no antibiotics added) (S. aureus [6]; 0.781 ppm): 0.8
LU, fold increase over control (no antibiotics added) (S. aureus [6]; 1.562 ppm): 1.3
LU, fold increase over control (no antibiotics added) (S. aureus [6]; 3.125 ppm): 2.8
LU, fold increase over control (no antibiotics added) (S. aureus [6]; 6.25 ppm): 5.2
LU, fold increase over control (no antibiotics added) (S. aureus [6]; 12.5 ppm): 7.2
LU, fold increase over control (no antibiotics added) (S. aureus [6]; 25 ppm): 11.5
LU, fold increase over control (no antibiotics added) (S. aureus [6]; 50 ppm): 17.6
LU, fold increase over control (no antibiotics added) (S. aureus [6]; 100 ppm): 70.1
MIC (S. aureus [6]; Staphylococcus aureus): ~1.5 µg/mL (≈ 4.64 µM)
